The values below come from PMC8307404, “Crystal Structure-Guided Design of Bisubstrate Inhibitors and Photoluminescent Probes for Protein Kinases of the PIM Family” (Molecules, 2021).

The term Kd denotes the concentration at which binding is half-saturated.

Data set [1] has as its target T1, PIM1 (Homo sapiens, UniProt P11309). The data set can be described thus: Thermal shift assay. The data set is classed as binding. More on the design: made in house. The conditions noted are these: 2 μM kinase, 12.5 μM compound; mean ± SEM, N = 2.
Experimental: (§1) Thermal shift assay measurements were performed following the previously published protocol [61] using a real-time PCR instrument (Mx3005p RT-PCR, Stratagene; La Jolla, California). […] The measurements were carried out in PCR low-profile microplate wells (ABgene; Portsmouth, NH, USA). The temperature scan was run from 25 to 95 °C at 1 °C/min. GraphPad Prism v. 6.0 (GraphPad Software, Inc.; San Diego, CA, USA) and Microsoft Excel v. 2007 (Microsoft Office; Redmond, WA, USA) were used for data processing and analysis.
Data set [2] addresses T2, PIM2 (Homo sapiens, UniProt Q9P1W9). The data set can be described thus: Thermal shift assay. The data set is classed as binding. More on the design: made in house. The conditions noted are these: 2 μM kinase, 12.5 μM compound; mean ± SEM, N = 2.
Experimental: as §1
The target in data set [3] is T3, PIM3 (Homo sapiens, UniProt Q86V86). The data set is described as follows: Thermal shift assay. The conditions noted are these: 2 μM kinase, 12.5 μM compound; mean ± SEM, N = 2. The class given is binding. More on the design: made in house.
Experimental: as §1
In the next data set the target is T4, PKAcα (Homo sapiens, UniProt P17612).
T4 construct: purchased Biaffin GmbH & Co KG (Kassel, Germany)
The data set can be described thus: Binding/displacement assay with FA or TGLI readout. The conditions noted are these: TGLI or FA readout; mean ± SEM, N = 2; read-out: KD, nM (PKAcα). On the procedure:
The affinities of the compounds toward the PIM family PKs were determined in a binding/displacement assay with measurement of fluorescence anisotropy (FA) and time-gated luminescence intensity (TGLI) (Table 2). For the initial assessment of the selectivity of compounds, PKAcα was used as the reference basophilic kinase.
Optical FA measurement modules for 5-TAMRA-labeled compounds (ex. 540(20) nm, em. 590(20) nm and 590(20) nm), for Cy5-labeled compounds (ex. 590(50) nm, em. 675(50) nm and 675(50) nm), and optical TGLI measurement modules for ARC-1451 (ex. 330(60) nm, em. 590(50) nm), for ARC-1188 (ex. 330(60) nm, em. 675(50) nm) were used for assays with PHERAstar microplate reader (BMG Labtech; Ortenberg, Germany). TGLI measurements were performed with a delay time of 50 μs and integration of the signal for 150 μs. In each measurement, emission from 200 flashes of excitation radiation was collected. The measurement solutions (20 µL volumes) were prepared in black 384-well low-binding surface microtiter plates (Corning #4514; Kennebunk, ME, USA) and incubated for 20 min at 30 °C before the measurements. The assay buffer contained HEPES hemisodium salt (pH 7.4, 50 mM), NaCl (150 mM), dithiothreitol (5 mM), bovine serum albumin (0.5 mg/mL), and Tween-20 (0.005%). GraphPad Prism v. 5.04 (GraphPad Software, Inc.) was used for data analysis with FA [32] or TGLI [33] readouts. Representative titration curves can be found in Supplementary Figure S7.

Data set [4] has as its target T1, PIM1. The data set is described as follows: Binding/displacement assay with FA or TGLI readout. More on the design: made in house.
Experimental: (§2) The affinities of the compounds toward the PIM family PKs were determined in a binding/displacement assay with measurement of fluorescence anisotropy (FA) and time-gated luminescence intensity (TGLI) (Table 2). For the initial assessment of the selectivity of compounds, PKAcα was used as the reference basophilic kinase [10].
(§3) Optical FA measurement modules for 5-TAMRA-labeled compounds (ex. 540(20) nm, em. 590(20) nm and 590(20) nm), for Cy5-labeled compounds (ex. 590(50) nm, em. 675(50) nm and 675(50) nm), and optical TGLI measurement modules for ARC-1451 (ex. 330(60) nm, em. 590(50) nm), for ARC-1188 (ex. 330(60) nm, em. 675(50) nm) were used for assays with PHERAstar microplate reader (BMG Labtech; Ortenberg, Germany). TGLI measurements were performed with a delay time of 50 μs and integration of the signal for 150 μs. In each measurement, emission from 200 flashes of excitation radiation was collected. The measurement solutions (20 µL volumes) were prepared in black 384-well low-binding surface microtiter plates (Corning #4514; Kennebunk, ME, USA) and incubated for 20 min at 30 °C before the measurements. The assay buffer contained HEPES hemisodium salt (pH 7.4, 50 mM), NaCl (150 mM), dithiothreitol (5 mM), bovine serum albumin (0.5 mg/mL), and Tween-20 (0.005%). […] 5.04 (GraphPad Software, Inc.) was used for data analysis with FA [32] or TGLI [33] readouts.
Data set [5] concerns the target T2, PIM2. The data set is described as follows: Binding/displacement assay with FA or TGLI readout. More on the design: made in house. The conditions noted are these: mean ± SEM, N = 2.
Experimental: as §2, §3
Data set [6] deals with T3, PIM3. The data set can be described thus: Binding/displacement assay with FA or TGLI readout. Further details: made in house. The conditions noted are these: mean ± SEM, N = 2.
Experimental: as §2, §3
The next data set has as its system U2OS cells. The data set can be described thus: Cellular uptake of fluorescent probes, live-cell microscopy. The class given is cell-based, human. The conditions noted are these: 1–5 μM, 10–60 min. As for the experimental part:
For studies of the general internalization properties of ARCs, the cells were seeded at the density of 12,000–25,000 cells per well onto an Ibidi μ-plate (96-well; Ibidi GmbH, Planegg, Germany). After 24 h incubation in growth medium, the cells were treated for 10 min, 30 min, or 1 h with dilutions of compounds 6, 7, 8, or ARC-2090 (5 μM, 2.5 μM, or 1 μM final concentration) in the phenol red-free DMEM/Ham’s F12 medium supplemented with 2% ccFBS and 2 mM glutamine. Next, cells were washed twice with PBS, and imaging medium (MEMO + Supplement A 1:100) was applied subsequently. Cells were imaged with Cytation 5 wide-field microscope (BioTek; Winooski, VT, USA) using 20× air objective and the following settings: for Cy5, 623 nm LED (intensity: 2) and Cy5 filter cube (685 nm) with 104 ms integration time and detector gain value of 2; for TAMRA, 523 nm LED (intensity: 7) and RFP filter cube (593 nm) with 252 ms integration time and detector gain value of 16; for bright-field, white LED with intensity 6, 186 ms integration time and detector gain value of 15. Four independent experiments were performed.

The target of another data set is T5, PIM-1-TagRFP (Homo sapiens, UniProt P11309).
T5 construct: expressed in transfected cells; host or cells: U2OS (human osteosarcoma), transient, 48 h, FuGENE HD
The data set is described as follows: Co-localization study, TIRF microscopy. The data set is classed as cell-based. The conditions noted are these: live U2OS cells, 48 h transfection, 1 h incubation with 2.5 or 5 μM probe.

In another data set the target is endoprotease furin. More on the design: method as in PMID 26110264. The conditions noted are these: cited from earlier work.
The mark [7] stands for this setting: KD, nM (PIM-1), TGLI or FA readout, mean ± SEM, N = 2.

“And” between values parts separate entries of the source, which are not always exact repeats. Equal values may be shown once. Square brackets hold non-standard residues; d marks the D form. Peptide text beside a SMILES is read from it. * marks the point of attachment. X7 = Nc1nccc(-c2ccc(C(=O)*)s2)n1; Ahx = NCCCCCC(=O)O

T2 sequence (Q9P1W9 whole entry): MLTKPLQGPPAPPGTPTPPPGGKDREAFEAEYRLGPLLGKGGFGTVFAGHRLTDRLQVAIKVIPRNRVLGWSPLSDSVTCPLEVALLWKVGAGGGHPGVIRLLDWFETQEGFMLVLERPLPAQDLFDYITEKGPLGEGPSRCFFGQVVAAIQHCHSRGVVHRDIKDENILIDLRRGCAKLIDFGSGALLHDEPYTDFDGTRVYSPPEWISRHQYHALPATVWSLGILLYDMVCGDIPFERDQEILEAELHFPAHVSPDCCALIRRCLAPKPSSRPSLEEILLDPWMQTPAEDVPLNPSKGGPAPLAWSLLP
T1 sequence (P11309 whole entry): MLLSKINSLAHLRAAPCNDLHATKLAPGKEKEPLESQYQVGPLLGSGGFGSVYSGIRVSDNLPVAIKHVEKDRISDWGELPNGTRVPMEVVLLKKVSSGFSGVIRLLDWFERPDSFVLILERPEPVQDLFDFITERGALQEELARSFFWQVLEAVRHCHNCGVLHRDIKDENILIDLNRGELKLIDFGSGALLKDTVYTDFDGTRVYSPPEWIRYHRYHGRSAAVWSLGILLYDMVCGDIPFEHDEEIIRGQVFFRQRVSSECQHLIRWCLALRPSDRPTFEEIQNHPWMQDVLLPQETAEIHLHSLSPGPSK
T5 sequence (P11309 whole entry): as above

As for `C[C@@H](NC(=O)CCCCCNC(=O)c1ccc(-c2ccnc(N)n2)s1)C(=O)N[C@H](CCCNC(=N)N)C(=O)N[C@H](CCCNC(=N)N)C(=O)N[C@H](CCCNC(=N)N)C(=O)N[C@H](CCCNC(=N)N)C(=O)N[C@H](CCCNC(=N)N)C(=O)N[C@H](CCCNC(=N)N)C(=O)N[C@H](CCCCN)C(=O)NCC(=O)O` [ARC-1141, AMTH-Ahx-D-Ala-(D-Arg)6-D-Lys-Gly] ({X7-Ahx}-[dA][dR][dR][dR][dR][dR][dR][dK]G-OH), the “∆Tm, °C PIM-1” value in the data set with PIM1 [1] amounted to 5.2 ± 0.4 °C. Further, the “∆Tm, °C PIM-2” value with PIM2 [2] came out at 5.9 ± 0.6 °C. For the same compound, the “∆Tm, °C PIM-3” value with PIM3 [3] was determined as 4.9 ± 0.4 °C.

Turning to `N[C@@H]1CCCN(c2c(/C=C3\SC(=O)NC3=O)cccc2-c2ccccc2)C1` [AZD1208, reference compound], at PKAcα, the Kd was above 83000 nM.

For the compound `N=C(N)NCCC[C@@H](NC(=O)CNC(=O)[C@@H](CCCNC(=N)N)NC(=O)[C@@H](CCCNC(=N)N)NC(=O)CCCCc1cn(Cc2nc3c(sc4ccc(Br)cc43)c(=O)[nH]2)nn1)C(=O)N[C@H](CCCCN)C(N)=O` [Compound 4, BBTP-Tap-(D-Arg)2-Gly-D-Arg-D-Lys-NH2], the Kd was above 18200 nM at PKAcα, 1.8 ± 0.3 nM on PIM1 [4] (setting [7]), 20 ± 4 nM on PIM2 [5] and 6.6 ± 1.4 nM on PIM3 [6]. Moreover, on PIM1 [4] (PIM-1 vs PKAcα), the “fold higher selectivity as compared to compound 3” value is “over 5 fold”.

`N=C(N)NCCC[C@@H](NC(=O)CNC(=O)[C@@H](CCCNC(=N)N)NC(=O)[C@@H](CCCNC(=N)N)NC(=O)CCCCCCCNC(=O)[C@@H]1C[C@@H](O)CN1Cc1nc2c(sc3ccc(Br)cc32)c(=O)[nH]1)C(=O)N[C@H](CCCCN)C(N)=O` [Compound 5, BBTP-Hyp-Aoc-(D-Arg)2-Gly-D-Arg-D-Lys-NH2]: the Kd at PKAcα is above 20600 nM; at PIM1 [4] (setting [7]), 37.8 ± 9 nM; at PIM2 [5], 447 ± 52 nM; on PIM3 [6], 30.4 ± 6.5 nM. In addition, the “fold lower selectivity toward PIM-1 than compound 2” value on PIM1 [4] (PIM-1 vs PKAcα) is “over 4 fold”.

Regarding `CN1C(=CC=CC=CC2=[N+](CCCCCC(=O)NCCCC[C@@H](NC(=O)[C@@H](CCCNC(=N)N)NC(=O)CNC(=O)[C@@H](CCCNC(=N)N)NC(=O)[C@@H](CCCNC(=N)N)NC(=O)CCCCCCCNCc3nc4c(sc5ccc(Br)cc54)c(=O)[nH]3)C(N)=O)c3ccccc3C2(C)C)C(C)(C)c2ccccc21` [Compound 6, BBTP-Aoc-(D-Arg)2-Gly-D-Arg-[D-Lys(Cy5)]-NH2], the Kd was above 303 nM at PKAcα, 1.7 ± 0.4 nM at PIM1 [4] (setting [7]), 5.2 ± 0.9 nM on PIM2 [5] and 2.6 ± 0.3 nM at PIM3 [6]. In the data set with U2OS cells, the “ability to cross the plasma membrane / internalization” value is on record as “efficiently internalized into the cells”. Also, the “Manders' coefficient, co-localization with PIM-1-TagRFP” value at PIM-1-TagRFP worked out at 0.72 ± 0.06.

`CN1C(=CC=CC=CC2=[N+](CCCCCC(=O)NCCCC[C@@H](NC(=O)[C@@H](CCCNC(=N)N)NC(=O)CNC(=O)[C@@H](CCCNC(=N)N)NC(=O)[C@@H](CCCNC(=N)N)NC(=O)CCCCc3cn(Cc4nc5c(sc6ccc(Br)cc65)c(=O)[nH]4)nn3)C(N)=O)c3ccccc3C2(C)C)C(C)(C)c2ccccc21` [Compound 7, BBTP-Tap-(D-Arg)2-Gly-D-Arg-[D-Lys(Cy5)]-NH2]: the Kd was above 1080 nM at PKAcα, 21.9 ± 4 nM on PIM1 [4] (setting [7]), 28.2 ± 6.7 nM on PIM2 [5] and 8.3 ± 1 nM on PIM3 [6]. For the same compound, the “ability to cross the plasma membrane / internalization” value in the data set with U2OS cells is recorded as “efficiently internalized into the cells”. Besides, the “Manders' coefficient, co-localization with PIM-1-TagRFP” value on PIM-1-TagRFP is on record as 0.43 ± 0.16.

Regarding `N=C(N)NCCC[C@@H](N)C(=O)N[C@H](CCCNC(=N)N)C(=O)NCC(=O)N[C@H](CCCNC(=N)N)C(=O)N[C@H](CCCCN)C(N)=O` [PIM peptide, (D-Arg)2-Gly-D-Arg-D-Lys-NH2], the Kd is above 89000 nM on PKAcα; above 10000 nM at PIM1 [4] (KD toward PIM-1, as worded in text); above 11500 nM at PIM1 [4] (setting [7]); above 46000 nM on PIM2 [5]; above 16400 nM at PIM3 [6].

Regarding `CN1CCC(CNc2ccc3ncc(-c4cccc(OC(F)(F)F)c4)n3n2)CC1` [SGI-1776, reference compound], the “∆Tm, °C PIM-1” value at PIM1 [1] was 9.5 °C and 9.5 ± 0.4 °C. Further, the “∆Tm, °C PIM-2” value on PIM2 [2] came to 8.1 ± 0.6 °C. Also, the “∆Tm, °C PIM-3” value at PIM3 [3] came out at 8.2 ± 0.3 °C.

As for (D-Arg)6-NH2, the Kd on endoprotease furin is 106 nM.

(D-Arg)9-NH2: the dissociation constant (Kd) at endoprotease furin is 1.3 nM.

“BBTP-Hyp-Ahx-(D-Arg)9-D-Lys-NH2 [ARC-3119]”: the “∆Tm, °C PIM-1” value with PIM1 [1] worked out at 13.7 ± 0.4 °C. Also, the “∆Tm, °C PIM-2” value with PIM2 [2] was 13.9 ± 0.6 °C. The “∆Tm, °C PIM-3” value in the data set with PIM3 [3] came out at 11.9 ± 0.2 °C.
